Results on three compounds are retold here after paper PMC6150172, “Synthesis of Oxadiazole-Thiadiazole Hybrids and Their Anticandidal Activity” (Molecules : A Journal of Synthetic Chemistry and Natural …, 2017).

Each structure is given as a SMILES string. ≈ marks a conversion by molar mass, not a printed value.

One data set deals with C. albicans (ATCC 24433). Description: Antifungal broth microdilution assay (EUCAST EDef 7.1), C. albicans. It is filed as cell-based. Particulars: Candida albicans, ATCC24433, read-out: Minimum inhibitory concentration (MIC50). The method, then:
(§1) The anticandidal effect of compounds 6a–6s were screened in accord with the EUCAST definitive (EDef 7.1) method. Ketoconazole was employed as a reference drug. The in vitro growth inhibitory activity of the compounds were tested against C. albicans (ATCC 24433), C. glabrata (ATCC 90030), C. krusei (ATCC 6258) and C. parapsilosis (ATCC 22019). The results were obtained as MIC values and MIC readings were accomplished twice for each chemical agent. After incubating overnight at 37 °C, the fungal strains were sustained in Roswell Park Memorial Institute (RPMI) medium.
(§2) Adjustment of the inoculum density to a 0.5 McFarland turbidity standard was carried out by using a spectrophotometer. The resulting inoculum suspension contained 0.5 × 10^5–2.5 × 10^5 cfu/mL for fungi. The two-fold serial dilutions technique were applied and the test was carried out in Mueller–Hinton broth and RPMI at pH7 and the test was performed for medium at pH7. The last well on the microplates containing only inoculated broth and the last well with no growth of microorganism represent controls and the MIC50 in μg/mL, respectively. DMSO was used as solvent. Further dilutions of the compounds and standard drugs in the RPMI medium were prepared in the required quantities at contcentrations of 800, 400, 200, 100, 50, 25, 12.5, 6.25, 3.125, 1.5625 and 0.78 µg/mL. After a 24 h incubation of the completed plates, resazurin (20 µg/mL) was added into each well in order to observe the fungal growth. […] Each experiment in antifungal assay was performed twice.
(In broth dilution the organism is exposed to a series of concentrations in liquid medium.)

A further data set relates to C. glabrata (ATCC 90030). Description: Antifungal broth microdilution assay (EUCAST EDef 7.1), C. glabrata. It counts as cell-based. Particulars: Nakaseomyces glabratus, ATCC90030, read-out: Minimum inhibitory concentration (MIC50). The method, then: as §1, §2
The next data set deals with C. krusei (ATCC 6258). Description: Antifungal broth microdilution assay (EUCAST EDef 7.1), C. krusei. It counts as cell-based. The note with it: Pichia kudriavzevii, ATCC6258, read-out: Minimum inhibitory concentration (MIC50). Here is the method: as §1, §2
Data set [1] has as its system C. parapsilosis (ATCC 22019). Description: Antifungal broth microdilution assay (EUCAST EDef 7.1), C. parapsilosis. It is filed as cell-based. Particulars: Lodderomyces parapsilosis, ATCC22019; C. parapsilopsis; read-out: Minimum inhibitory concentration (MIC50). The method, then:
as §1, §2

The test system of data set [2] is ergosterol biosynthesis in C. krusei. Description: Ergosterol level quantification by LC-MS-MS in C. krusei. The note with it: Pichia kudriavzevii, mean ± SD. It is filed as cell-based. The method, then: The ergosterol level was determined using the method described by Breivik and Owades with adjustments according to [2]. C. krusei was inoculated with Sabouraud dextrose broth (Difco) supplemented with compounds 6e, 6k, 6r and the positive control, ketoconazole. The cultures were incubated, and the stationary-phase cells were harvested. After the addition of 25% alcoholic potassium hydroxide solution, cell suspensions were separated and incubated. Sterols were extracted by sterile distilled water and chloroform, and then the extract was injected into the LC-MS-MS system (Shimadzu LCMS 8040, Kyoto, Japan). The ergosterol quantity in the negative control samples was considered as 100%. All concentrations were analysed in quadruplicate, and the results were presented as mean ± standard deviation (SD).

The nature of a further data set: MTT cytotoxicity test. It counts as cell-based. Particulars: mouse, NIH/3T3 mouse embryonic fibroblast cells, NIH/3T3 cell line, read-out: IC50 (cytotoxic activity). The method, then: The MTT assay was carried out to determine the cytotoxicity of the synthesized compounds as previously reported in [21]. NIH/3T3 mouse embryonic fibroblast cells (ATCC® CRL-1658™, London, UK) were incubated according to the supplier’s references and seeded at 1 × 10^4 cells into each well of 96-well plates. After this process, cells were treated with the compounds at concentrations ranging from 800 µg/mL to 0.78 µg/mL. By means of the following formula, percent inhibition was evaluated for each concentration.
For orientation: Tetrazolium assays rely on reduction of a dye to a coloured formazan, in cell work by metabolically active cells.

For the next data set, the system named is four Candida species. Description: Antifungal broth microdilution assay, four Candida species taken together. It is filed as cell-based. Particulars: range over four Candida strains. The method, then:
as §1, §2

As a reminder, the inhibition is how much of the control response was suppressed. High values mean a response far below the control, low ones a response near the control. For orientation: IC50 means the concentration that inhibits the measured activity by half. What is called melting point is the temperature of the solid-liquid transition. Take `O=C(CSc1nnc(CCSc2nnc(NC3CCCCC3)s2)o1)c1ccc([N+](=O)[O-])cc1` [Compound 6e, 2-[[5-[2-[[5-(Cyclohexylamino)-1,3,4-thiadiazol-2-yl]thio]ethyl]-1,3,4-oxadiazol-2-yl]thio]-1-(4-nitrophenyl)ethan-1-one]: the melting point stood at 144 °C. Besides, the MIC50 with C. albicans (ATCC 24433) is 1.56 µg/mL (≈ 3.08 µM). Further, the MIC50 with C. glabrata (ATCC 90030) came out at 1.56 µg/mL (≈ 3.08 µM). In the data set on C. krusei (ATCC 6258), the MIC50 turned out to be 0.78 µg/mL (≈ 1.54 µM). In addition, the MIC50 in data set [1] was 0.78 µg/mL (≈ 1.54 µM). In data set [2], this compound had an inhibition at 0.78 µg/mL of 76.5 ± 3.67%, an inhibition at 1.56 µg/mL of 82.9 ± 4.72% and an inhibition at 3.12 µg/mL of 88.6 ± 4.52%. Further, the IC50 in the data set “MTT cytotoxicity test” is over 500 µg/mL. The “minimum inhibitory concentration (MIC), range over all tested fungi” value in the data set with four Candida species was in the range of 0.78 to 3.12 µg/mL.

`O=C(CSc1nnc(CCSc2nnc(NC3CCCCC3)s2)o1)Nc1ccc([N+](=O)[O-])cc1` [Compound 6k, 2-[[5-[2-[[5-(Cyclohexylamino)-1,3,4-thiadiazol-2-yl]thio]ethyl]-1,3,4-oxadiazol-2-yl]thio]-N-(4-nitrophenyl)acetamide]: the melting point was 149 °C. Moreover, the MIC50 in the data set on C. albicans (ATCC 24433) stood at 1.56 µg/mL (≈ 2.99 µM). Further, in the data set with C. glabrata (ATCC 90030), the MIC50 worked out at 1.56 µg/mL (≈ 2.99 µM). Besides, the MIC50 in the data set on C. krusei (ATCC 6258) is 1.56 µg/mL (≈ 2.99 µM). The MIC50 in data set [1] was 1.56 µg/mL (≈ 2.99 µM). In data set [2], at 0.78 µg/mL the inhibition was 58.7 ± 2.41%, testing at 1.56 µg/mL gave an inhibition of 74.7 ± 3.26% and the inhibition at 3.12 µg/mL is 81.3 ± 4.19%. The IC50 in “MTT cytotoxicity test” is over 500 µg/mL. Besides, in the data set with four Candida species, the “minimum inhibitory concentration (MIC), range over all tested fungi” value was 0.78 to 3.12 µg/mL.

In the case of `O=C(CSc1nnc(CCSc2nnc(NC3CCCCC3)s2)o1)Nc1nc2ccc([N+](=O)[O-])cc2s1` [Compound 6r, 2-[[5-[2-[[5-(Cyclohexylamino)-1,3,4-thiadiazol-2-yl]thio]ethyl]-1,3,4-oxadiazol-2-yl]thio]-N-(6-nitrobenzothiazol-2-yl)acetamide], the MIC50 came out at 3.12 µg/mL (≈ 5.39 µM) in the data set on C. albicans (ATCC 24433), 3.12 µg/mL (≈ 5.39 µM) in the data set on C. glabrata (ATCC 90030), 1.56 µg/mL (≈ 2.7 µM) in the data set on C. krusei (ATCC 6258) and 1.56 µg/mL (≈ 2.7 µM) in data set [1]. The same compound gave an inhibition at 0.78 µg/mL in data set [2] of 61.4 ± 1.88%. In addition, the inhibition at 1.56 µg/mL in data set [2] was 70.6 ± 4.23%. This compound displayed an inhibition at 3.12 µg/mL in data set [2] of 80.2 ± 3.7%. For the same compound, the IC50 in “MTT cytotoxicity test” was 406 ± 9.36 µg/mL (≈ 702 µM). Moreover, in the data set with four Candida species, the “minimum inhibitory concentration (MIC), range over all tested fungi” value fell in the range of 0.78 to 3.12 µg/mL.
